Results published in patent US9457052B2, “Allograft tolerance induction” (The United States of America as Represented by the …, priority 2013, dated 2016).

Tested on: C57BL/6 responder splenocytes with irradiated BALB/c stimulatory cells
Test: Allo-MLR lymphocyte proliferation assay (3H-thymidine) with AMPs
Format: cell-based, mouse
Settings: 20 μM indomethacin alone
Protocol: FIG. 2. […] (A) Naive C57BL/6 splenocytes (as responders cells) were cultured 1:1 with irradiated (3 Gy) naïve BALB/c stimulatory cells. […] Cell proliferation was analyzed by 3H-thymidine incorporation during the last 18 h of a 5 day culture. Results are expressed as the mean percent alloproliferation inhibition of quadruplicate cultures. Data are representative of two independent experiments. (B) Cytokine analysis of 48 h culture supernatants obtained from mixed lymphocyte reaction assays. Data are presented as means±SD (n=3; P<0.05). (C) Representative flow cytometric analysis of splenic Tregs following 5 days of alto-MLR culture in the absence and presence of AMP co-culture. […] Quadrants are set according to isotype controls. Results shown are representative of three separate experiments. FIG. 3. […] Results are expressed as the mean value±SD. […] Bars indicate mean fold increase±SD mRNA expression level of the indicated gene relative the housekeeping gene GAPDH and normalized to untreated AMP cutlures. (D) Supernatants from allo-MLR/AMP co-cultures inhibit MLR lymphocyte proliferation. […] Cell proliferation was analyzed by ^3H-thymidine incorporation during the last 18 h of a 5 day culture. Results are expressed as the mean percent alloproliferation inhibition of quadruplicate cultures. […]

With COc1ccc2c(c1)c(CC(=O)O)c(C)n2C(=O)c1ccc(Cl)cc1 [indomethacin] the “allo T-cell proliferation” value was “significantly inhibit”.
